According to patent US7018802B2, “Electrochemiluminescent enzyme immunoassay” (BioVeris Corporation, priority 1995, dated 2006):
Read-outs that look alike come from different tables or passages of the source.

Key:
[1] = molecular target: T1, β-lactamase I from Bacillus cereus (Bacillus cereus, UniProt P00809); type: biochemical; conditions: for ECL increase upon enzyme hydrolysis, second experiment: incubating time with enzyme 60 minutes, ampicillin with Ru(bpy)3^+2, FIG. 9
Protocol: ECL properties were compared both before and after NaOH and enzymatic hydrolysis (FIG. 7).
Following 30 minute incubations, the solutions were neutralized with 50 μL of 5 M HCl. […] Following 30 minute incubations, 50 μL of 5 M NaCl was added to these solutions.
ECL properties were compared before and after NaOH and enzymatic hydrolysis.
Following 30 minute incubations, the solutions were neutralized with 50 μL of 5 M HCl. […] Following 60 minute incubations, 50 μL of 5 M NaCl was added to these solutions.

[2] = molecular target: T1, β-lactamase I from Bacillus cereus; conditions: in words
[3] = 347 nM β-lactamase I, 30 minutes, 30 μM, ampicillin in equimolar mixture with Ru(bpy)3^+2 (nonconjugated), FIG. 8
[4] = 3.8 μM β-lactamase I, 23.0 μM, 6-APA in equimolar mixture with Ru(bpy)3^+2 (nonconjugated), FIG. 11

T1 sequence (P00809 28-306): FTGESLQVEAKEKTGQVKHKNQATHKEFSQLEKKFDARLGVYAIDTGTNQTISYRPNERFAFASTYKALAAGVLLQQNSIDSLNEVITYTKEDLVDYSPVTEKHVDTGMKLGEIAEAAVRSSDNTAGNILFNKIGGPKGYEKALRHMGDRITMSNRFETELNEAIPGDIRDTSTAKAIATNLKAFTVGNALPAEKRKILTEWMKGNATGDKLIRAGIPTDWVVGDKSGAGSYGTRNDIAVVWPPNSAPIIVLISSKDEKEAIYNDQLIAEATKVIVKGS

Molecule | ECL increase upon enzyme hydrolysis [1, 3] [fold] | ECL increase upon enzyme hydrolysis, second experiment [1] [fold] | ECL increase upon enzyme hydrolysis [1, 4] [fold] | substrate quality for β-lactamase [2]
CC1(C)S[C@@H]2[C@H](NC(=O)[C@H](N)c3ccccc3)C(=O)N2[C@H]1C(=O)O [ampicillin, reference compound] | 2.1 | 2.5 |  | 
CC1(C)S[C@@H]2[C@H](N)C(=O)N2[C@H]1C(=O)O [6-APA, 6-aminopenicillanic acid, reference compound] |  |  | 1.4 | 
Ru(bpy)3^+2-labeled ampicillin [Ru-AMP] | 9.8 | 11.1 |  | very good substrate
Ru(bpy)3^+2-labeled 6-aminopenicillanic acid [Ru-APA] |  |  | 31.8 | very good substrate
